For test [1], the system named is rice (Kitaake x Nipponbare F1 plants). The test is described as follows: meiotic recombination in rice F1 plants, recombinant reads in sequenced pollen DNA. The class given is in vivo, Oryza sativa subspecies japonica. The settings on record: 7.5 mM whole-plant spray at panicle stage, 10% DMSO and 0.01% Silwet; pollen harvested after 5-7 days. The text has this:
Meiotic recombination was stimulated in rice by external application of phenethyl isothiocyanate (IUPAC name: 2-isothiocyanatoethylbenzene). First, two parental rice lines, “Oryza sativa subspecies japonica variety Kitaake” (“Kitaake” hereafter) and “Oryza sativa subspecies japonica variety Nipponbare” (“Nipponbare” hereafter) were manually crossed to produce F1 seeds. F1 seeds were germinated and grown to produce F1 plants. PCR was used to genotype the F1 plants and confirm their heterozygosity. When F1 plants produced panicles (inflorescences) they were treated by spraying the whole plant, until saturation, with 7.5 mM phenethyl isothiocyanate in an aqueous solution containing 10% DMSO and 0.01% Silwet. The phenethyl isothiocyanate was first dissolved in 100% DMSO and then diluted to its final concentration with 0.0.1% Silwet in water. Control plants were mock-treated with 10% DMSO and 0.01% Silwet. […] Reads that spanned at least two parental SNPs were selected and binned into those that contained SNPs of only the Kitaake type (non-recombinant), only the Nipponbare type (non-recombinant) or both Kitaake and Nipponbare type (recombinant). The frequency of recombinant reads from treated and untreated plants were compared to detect an increase in meiotic recombination resulting from treatment with phenethyl isothiocyanate.

Test [2] deals with flowering Arabidopsis thaliana plants. The test is described as follows: visual fluorescent pollen transgene assay, crossover frequency in interval I5d (chromosome 5). Type of test: in vivo. Particulars: 10% DMSO and 0.01% Silwet; for genetic map distance: p-value 0.000. As for the experimental part: An aqueous solution of 3-aminobutanoic acid was applied to flowering Arabidopsis thaliana plants to enhance the frequency of meiotic recombination (crossovers). Silwet, a spraying adjuvant, was added to the 3-aminobutanoic acid solution at a volume/volume concentration of 0.01%. The solution was applied to the plants by foliar spraying until the plants were drenched. Several concentrations of 3-aminobutanoic acid were used including 0.1, 1, 7.5, 10, 12.5 and 15 mM. As a control, other plants (i.e., control plants) were treated with an aqueous 0.01% solution of Silwet by foliar spraying the solution on the plants until the plants were drenched.
(§1) Crossover frequencies were measured in pollen from treated and control plants using a visual fluorescent pollen transgene assay as described in Francis et al., Proc Natl Acad Sci USA. 2007; 104 (10): 3913-3918. In this assay pollen tetrads are scored as Parental Ditype (PD), Nonparental Ditype (NPD) or Tetratype (TT) and the frequency of those tetrad classes are used to calculate a genetic map distances in centiMorgans (cM) between reporter genes expressing fluorescent proteins. The genetic map distances between a pair of markers on chromosome 5 were compared between control plants and treated plants. The genetic interval between the two markers was designated as I5d. […] In Table 2, each experimental treatment is paired with data from control plants that were treated and scored together and designated with an experiment number in the first column.
An aqueous solution phenethyl isothiocyanate (IUPAC name: 2-isothiocyanatoethylbenzene) was applied to flowering Arabidopsis thaliana plants to enhance the frequency of meiotic recombination (crossovers). Phenethyl isothiocyanate in an aqueous solution containing 10% DMSO and 0.01% Silwet was applied by foliar spray until the plants were drenched. The phenethyl isothiocyanate was first dissolved in 100% DMSO and then diluted to its final concentration with 0.0.1% Silwet in water. Several concentrations of phenethyl isothiocyanate were used including 7.5, 10, and 12.5 mM. Control plants were treated with an aqueous solution of 10% DMSO and 0.01% Silwet by foliar spraying the solution on the control plants until the control plants were drenched.
as §1, with “4,” for “2,”
An aqueous solution BIX-01294 (IUPAC name: N-(1-benzylpiperidin-4-yl)-6,7-dimethoxy-2-(4-methyl-1,4-diazepan-1-yl) quinazolin-4-amine) was applied to flowering Arabidopsis thaliana plants to enhance the frequency of meiotic recombination (crossovers). BIX-01294 in an aqueous solution containing 10% DMSO and 0.01% Silwet was applied by foliar spray until the plants were drenched. The BIX-01294 was first dissolved in 100% DMSO and then diluted to its final concentration with 0.0.1% Silwet in water. Several concentrations of […] were used including 0.5, 1, 2.5 and 5 mM. Control plants were treated with an aqueous solution of 10% DMSO and 0.01% Silwet by foliar spraying the solution on the control plants until the control plants were drenched. […]

Data on one compound can be found in patent publication US20250160275A1, “COMPOUNDS FOR MODIFYING MEIOTIC RECOMBINATION AND METHODS RELATING THERETO” (The University of North Carolina at Chapel Hill, priority 2022, published 2025).

Turning to `S=C=NCCc1ccccc1` [phenethyl isothiocyanate, 2-isothiocyanatoethylbenzene], the “meiotic recombination in rice” value in test [1] is given as “stimulated”. Also, the “NPD (Nonparental Ditype pollen tetrads)” value in test [2] (7.5 mM foliar spray, Exp.(2)) is on record as 2; in test [2] (10 mM foliar spray, Exp.(1)), 0; in test [2] (12.5 mM foliar spray, Exp.(2)), 0. In addition, the “PD (Parental Ditype pollen tetrads)” value was 978 in test [2] (7.5 mM foliar spray, Exp.(2)); 1840 in test [2] (10 mM foliar spray, Exp.(1)); 868 in test [2] (12.5 mM foliar spray, Exp.(2)). For the same compound, the “TT (Tetratype pollen tetrads)” value in test [2] (7.5 mM foliar spray, Exp.(2)) is reported as 211; in test [2] (10 mM foliar spray, Exp.(1)), 370; in test [2] (12.5 mM foliar spray, Exp.(2)) it was 200. The genetic map distance is reported as 9.36 cM in test [2] (7.5 mM foliar spray, Exp.(2), DMSO control 5.90 cM); 8.37 cM in test [2] (10 mM foliar spray, Exp.(1), DMSO control 5.77 cM); 9.36 cM in test [2] (12.5 mM foliar spray, Exp.(2), DMSO control 5.90 cM). In test [2] (all concentrations (7.5, 10, 12.5 mM)), the “meiotic recombination in treated plants compared to controls” value is reported as “increase meiotic recombination”.
